Data on 11 molecules can be found in patent US9931316B2 (priority 2015, dated 2018).

For orientation: EC50 means the midpoint of the concentration-response curve. For orientation: EC90 means the concentration needed for an effect of 90%. For orientation: IC50 means the concentration that inhibits the measured activity by half.

In brackets after ≈: the same amount, converted by molar mass. Like-named read-outs stand apart in the source and are kept apart here.

One data set has as its system Human papillomavirus 11. The data set is classed as cell-based, human papillomavirus (HPV).
Data set [1] has as its system Flu A (H5N1) Vietnam/1203/2004H. Nature of the data set: microbe, parasite or virus in culture. The data set is classed as cell-based, Influenza A.
Data set [2] concerns Flu A (H3N2) Wisconsin/67/2005. Nature of the data set: microbe, parasite or virus in culture. It counts as cell-based, Influenza A. To be noted: for Cntrl SI: Ribavirin control, Flu A (H3N2).
The test system of a further data set is Flu B Shanghai/361/02. Briefly: Influenza B antiviral assay in MDCK cells (BioShield, NIH contract labs). The note with it: for EC50: Influenza B virus, read-out: Cntrl EC50; for EC50 / Cntrl SI: Ribavirin control, Flu B. The data set is classed as cell-based. The source says: Following the Project BioShield Act of 2004, Fungi Perfecti, LLC submitted over 200 hot water fruitbody and aqueous ethanolic extracts of the in vitro grown mycelia of mushroom species and strains within to the BioShield BioDefense Program administered by the U.S. Army Medical Research Institute of Infectious Diseases ([…]) and the National Institutes of Health (NIH). Submitted samples were screened for antiviral activity coordinated through the Southern Research Institute (SRI). From the more than 200 samples the inventor provided to BioShield, 2,392 antiviral assays were performed on behalf of the inventor; 1,042 of which were influenza tests.
The protocols for determining antiviral activity are fully described by the National Institutes of Allergy and Infectious Diseases (NIAID) by Greenstone et al., NIAID resources for developing new therapies for severe viral infections, Antiviral Res., Volume 78, Issue 1, April 2008, Pages 51-59, hereby incorporated by reference in its entirety. The influenza bioassays were conducted according to Sidwell, R W and Smee, D F, In vitro and in vivo assay systems for study of influenza virus inhibitors, Antiviral Res., October 2000, 48(1):1-16., hereby incorporated by reference in its entirety.

A short description of a further data set: in vitro. The note with it: dog.
Data set [3] has as its system laccase activity of Trametes sp. 1-62. To be noted: Terron et al. 2004; cited from earlier work.
The conditions of data set [4]: within the human body; cited from earlier work.
Another data set concerns Polio. It counts as cell-based, poliovirus. To be noted: Polio primary, SI50 = CC50/EC50.
A further data set concerns Ebola. It counts as cell-based, Ebola virus. To be noted: SI50 = CC50/EC50.
The test system of data set [5] is Mycobacterium tuberculosis. The note with it: Hwang et al., J. Nat. Prod. 76: 1916-1922 (2013); cited from earlier work.
The test system of a further data set is Norovirus. It counts as cell-based, norovirus (Norwalk). Further details: unit not given beside the values.
The conditions of data set [6]: oral ingestion; cited from earlier work.
The next data set concerns HSV-1. Briefly: microbe, parasite or virus in culture. To be noted: Human alphaherpesvirus 1, HFF, read-out: Cntrl EC50. The data set is classed as cell-based, Herpes Simplex.

For the molecule `C[C@@H]1O[C@@H](OC[C@H]2O[C@@H](Oc3c(-c4ccc(O)c(O)c4)oc4cc(O)cc(O)c4c3=O)[C@H](O)[C@@H](O)[C@@H]2O)[C@H](O)[C@H](O)[C@H]1O.O` [Rutin hydrate], the SI90 entry with Human papillomavirus 11 was “Human papillomavirus 11 primary: SI50 > 109 (Control cidofovir SI50 = 12), SI90 = 5 (Control cidofovir SI90 = 1)”.

`NC(=O)c1ncn([C@@H]2O[C@H](CO)[C@@H](O)[C@H]2O)n1` [Ribavirin]: the EC50 stood at 12 mg/L (≈ 49.1 µM) in data set [1] (Influenza A virus, H5N1, MDCK, read-out: Cntrl EC50, Ribavirin control, Neutral Red); 2 mg/L (≈ 8.19 µM) in data set [2] (Influenza A virus, H3N2, MDCK, read-out: Cntrl EC50); 7.1 mg/L (≈ 29.1 µM) in the data set on Flu B Shanghai/361/02 (MDCK, Neutral Red); 1.7 mg/L (≈ 6.96 µM) in the data set with Flu B Shanghai/361/02 (MDCK, Visual-CONF); 1.7 mg/L (≈ 6.96 µM) in the data set on Flu B Shanghai/361/02 (MDCK, Visual). Further, the “Cntrl SI” value in data set [1] (Ribavirin control, Neutral Red) is given as greater than 27; in data set [2] (Neutral Red) it was greater than 160; in data set [2] (Visual) it was greater than 170; in the data set with Flu B Shanghai/361/02 (Neutral Red), greater than 45; in the data set on Flu B Shanghai/361/02 (Visual) it was greater than 190; in the data set on Flu B Shanghai/361/02 (Visual-CONF), greater than 190. In addition, in the data set on Flu B Shanghai/361/02 (MDCK, read-out: Cntrl EC90), the EC90 came to 37.7 mg/L (≈ 154 µM). The molecule further gave an IC50 in the data set “in vitro” greater than 320 mg/L.

Take `O=C(O)/C=C/c1ccc(O)cc1` [p-coumaric acid]: the “increase in laccase activity” value in data set [3] was 273 fold.

In the case of `COc1cc(C=O)ccc1O` [vanillin], the “share of vanillin metabolized into vanillic acid” value in data set [4] was “up to 95%”.

Turning to `O=c1cc(-c2ccccc2)oc2cc(O)cc(O)c12` [Chrysin], the SI50 entry in the data set on Polio was “Polio primary: SI50 > 15 (Control pirodavir SI50 > 22)”; in the data set on Polio (listed as chrysin) it was greater than 15.

As for `CC(=O)/C=C(O)\C=C\c1ccc(O)c(O)c1` [Hispolon], the SI50 with Ebola is greater than 5.3. Moreover, the “activity against Mycobacterium tuberculosis” value in data set [5] was “active”.

For the molecule `COc1cc(C(=O)O)ccc1O` [Vanillic acid], in the data set on Norovirus, the SI50 came out at 1 and the SI90 came out at 1. Further, the “time remaining in the blood stream post-digestion” value in data set [6] is “more than 11 hours”.

In the data set with Ebola, `NC(=O)c1nc(F)c[nH]c1=O` [favipiravir] yielded an SI50 greater than 10.

`COc1ccccc1O` [guaiacol]: in data set [3], the “increase in laccase activity” value is recorded as 73 fold.

Take `Nc1nc2c(ncn2COCCO)c(=O)[nH]1` [acyclovir]: the EC50 in the data set on HSV-1 is 0.3 mg/L (≈ 1.33 µM).

For the molecule `CCOC(=O)c1c(-c2ccccc2)c2ccc(Cl)cc2oc1=O` [Ethyl 7-chloro-2-oxo-4-phenyl-2H-chromen-3-carboxylate], in data set [5], the “activity against Mycobacterium tuberculosis” value is given as “active”.
